Data on 1 substance can be found in patent publication US9155784B2, “Anti-TNF-α therapy for the mucopolysaccharidoses and other lysosomal disorders” (Icahn School of Medicine at Mount Sinai, priority 2011, dated 2015).

In assay [1] the test system is MPS VI rats. Put plainly: Skull and snout appearance, radiographs and microCT in PPS treated MPS VI rats. Type of assay: in vivo, rat. Here is the method:
FIGS. 6A-6D show results of MPS VI rats treated with PPS. MPS VI rats were maintained on normal watering (FIG. 6A) or with water containing 25 mg/day PPS (n=6/group) (FIG. 6B). Animals were 6 months of age when treatment began, and treatment was carried out for 3 months. Skull and snout images were taken at the end of treatment. Representative images are shown. Skull length and width measurements also were determined from the radiographs for each of the animals, and the data are shown in the bar graph (FIGS. 6C, 6D). White=normal 9 month old, Gray=MPS VI rats on normal water; Blue=MPS VI rats receiving PPS. *=p<0.01.
FIGS. 7A-7F show skull radiographs (FIGS. 7A, 7B, 7C) and microCT images (FIGS. 7D, 7E, 7F) of normal rats (FIGS. 7A, 7D), MPS VI rats with PPS treatment (FIGS. 7C, 7F), and MPS VI rats without PPS treatment (FIGS. 7B, 7E). MPS VI rats were maintained on normal watering or with water containing 25 mg/day PPS (n=6/group). Animals were 6 months of age when treatment was begun, and treatment was carried out for 3 months. The top images show radiographs (FIGS. 7A, 7B, 7C), and the bottom images microCT images (FIGS. 7D, 7E, 7F). Longer snouts and thinner skulls were found in the MPS VI rats treated with PPS compared to untreated MPS VI. The lines in the radiographs are for reference. The quantitative data shown in FIGS. 6A-6D on skull length and width were measured from these radiographs.
In order to develop “proof-of-principle” data, six MPS VI rats at 6 months of age were treated with PPS for 3 months. 6-month-old MPS VI rats have established bone, cartilage, and inflammatory disease, and the specific goal in this initial study was therefore to evaluate whether PPS could either slow or reverse any of the clinical or pathological findings in MPS animals with advanced disease. […] As illustrated by FIGS. 7A-7F skull radiographs and microCT images were taken of normal rats (FIGS. 7A, 7D), MPS VI rats with PPS treatment (FIGS. 7C, 7F), and MPS VI rats without PPS treatment (FIGS. 7B, 7E). […] The images shown are representative of the general observations on these animals.

In assay [2] the test system is MPS VI rats. Put plainly: MicroCT of dentition in PPS treated MPS VI rats. Type of assay: in vivo, rat. The note with it: PPS 25 mg/day, start at 6 months of age, 3 months. Here is the method: FIGS. 8A-8F show microCT images of normal rats (FIGS. 8A, 8B) MPS VI rats with PPS treatment (FIGS. 8E, 8F) and without PPS treatment (FIGS. 8C, 8D) showing dentition changes. MPS VI rats were maintained on normal watering or with water containing 25 mg/day PPS (n=6/group). Animals were 6 months of age when treatment was begun, and treatment was carried out for 3 months. Untreated MPS VI rats have overgrown incisors (box) that leads to abnormal alignment of the teeth compared to normal rats. The mandible and misalignment were corrected by PPS treatment.
Untreated MPS VI rats have overgrown incisors (box) (FIGS. 8C, 8D) that leads to abnormal alignment of the teeth compared to normal rats. The mandible and misalignment were corrected by PPS treatment (FIGS. 8E, 8F).

Assay [3] concerns MPS VI rats. Put plainly: Accelerating rotarod of PPS treated MPS VI rats. Type of assay: in vivo, rat. On the procedure:
FIG. 9 depicts rotarod analysis of MPS VI rats with and without PPS. Six-month-old MPS VI rats were maintained with or without PPS for 3 months (n=6/group), and prior to sacrifice were analyzed using an accelerating rotarod apparatus. Gray=MPS VI rats on normal water; Blue=MPS VI rats receiving PPS.
FIGS. 12A-12C show results of treatment of MPS VI rats at one month of age. In FIGS. 12A and 12B, one-month old MPS VI rats were maintained for eight months on normal water or with water containing 25 mg/day PPS (n=6/group). Representative images are shown. Arrows indicate ocular porphyrin secretions, wide broad skull and snout and small ears in the untreated, with marked improvement in the treated animal. In FIG. 12C, animals were tested on an accelerating rotarod apparatus. […] In addition, only normal and treated rats were able to remain on the rotating rod at speeds up to 35 RPM (60% of normal).
(§1) Immediately prior to sacrifice, the animals also were studied using an accelerating rotarod apparatus. […] It was hypothesized that this reflects either increased joint mobility and/or reduced inflammation and pain in the treatment group. […] Serum levels of inflammatory marker MIP-1α is shown in FIG. 11A, while levels of marker Rantes is show in FIG. 11B and levels of TNF-α are shown in FIG. 11C.
For orientation: Falling from the rotarod earlier than controls is read as motor impairment.

The subject of another assay is TNF-α. Put plainly: Immunohistochemical analysis of TNF-α in liver and spleen of PPS treated MPS VI rats. In kind it is in vivo, rat. The following applies: PPS start at 6 months, 9-month-old animals, vs untreated.
Source text: (§2) FIGS. 10A-10B illustrate immunohistochemical analysis of PPS treated and untreated rats.
as §1

In the next assay the test system is MIP-1α, Rantes, TNF-α. Put plainly: Serum inflammatory markers by ELISA in PPS treated MPS VI rats. Type of assay: in vivo, rat. On the procedure: as §2
FIGS. 11A-11C show serum inflammatory markers in treated and untreated MPS VI rats. Three groups of MPS VI rats were treated with PPS beginning at six months (light gray), one month (dark gray) or prenatally (black). All animals were sacrificed at 9 months of age. The duration of treatment was therefore 3 months, 8 months or 9.75 months, respectively. The serum levels of several inflammatory markers were measured by ELISA assays, and compared to normal (hatched) or untreated MPS VI animals (white). N=6/group. Serum levels of inflammatory marker MIP-1α is shown in FIG. 11A, while levels of marker Rantes is shown in FIG. 11B and levels of TNF-α are shown in FIG. 11C.
as §1

Assay [4] relates to MPS VI rats. Put plainly: Tracheas of MPS VI rats treated with PPS. The following applies: all PPS treatment groups (start 6 months, 1 month, prenatally), sacrificed at 9 months. Type of assay: in vivo, rat. On the procedure:
FIG. 13 illustrates tracheas of MPS VI rats treated with PPS. Groups 1, 2 and 3 animals were treated with PPS beginning at 6 months, 1 month, and prenatally. They were sacrificed at 9 months and the tracheas were isolated.

The subject of assay [5] is MPS VI rats. Put plainly: Spine disease: disc height index from sagittal radiographs, PPS treated MPS VI rats. Type of assay: in vivo, rat. The note with it: PPS treatment of skeletally mature animals (6 months of age). On the procedure: FIGS. 14A-14C show an assessment of spine disease in the treated (6 month old) and untreated MPS VI rats.
Lastly, spine disease in the treated (6 month old) and untreated MPS VI rats was assessed. These studies have documented several important and clinically relevant endpoints that can be followed during PPS treatment. Histologically, MPS VI discs had abundant, enlarged vacuolated nuclear and annular cells as well as thickened annulus layers, focal defects in the nucleus pulposus, and increased disc height as compared to control discs (FIG. 14A). […] ADAMTS-5 is a proteoglycan-degrading aggrecanase that also is elevated in untreated MPS VI rat chondrocytes, but was reduced in the MPS VI treatment groups (FIG. 15).

The next assay concerns articular chondrocytes. Put plainly: Western blotting of articular chondrocytes from PPS treated MPS VI rats. Type of assay: in vivo, rat. The note with it: western blot, PPS groups 1-3, sacrificed at 9 months. Here is the method:
Groups 1, 2 and 3 animals were treated with PPS beginning at 6 months, 1 month and prenatally. They were sacrificed at 9 months and articular chondrocytes were isolated and grown for 3 weeks. They were then analyzed by western blotting. […] ADAMTS-5 is a proteeoglycan-degrading aggrecanase that also is elevated in untreated MPS VI rat chondrocytes, and was reduced in the MPS VI treatment groups.
Background: In western blotting, separated proteins are transferred to a membrane and probed.

Assay [6] relates to Niemann-Pick disease mice (acid sphingomyelinase knock-out). Put plainly: Rotarod analysis of Niemann-Pick disease mice treated with PPS. Type of assay: in vivo, mouse. The following applies: 25 mg/kg/day for three months from one month of age; 20 RPM; p<0.01; remained below wild-type. On the procedure: One-month-old Niemann-Pick disease mice (acid sphingomyelinase knock-out) were treated with PPS for three months beginning at one month of age (25 mg/kg/day). They were then analyzed using an accelerating rotarod apparatus set to 20 RPM.

Where [7] appears, read: PPS 25 mg/day in water, start at 6 months of age, 3 months, vs untreated MPS VI.
Where [8] appears, read: all treatment groups (start 6 months, 1 month or prenatally), sacrificed at 9 months, vs untreated.

Take Pentosan polysulfate [PPS]: in the assay on MPS VI rats [1] (setting [7]), the skull length entry is “significantly longer”, the skull width result is “thinner” and the snout length entry is given as “significantly longer”. Besides, in the assay on MPS VI rats [1] (PPS start at 1 month of age, 8 months), the “facial appearance, skull length, eye and nasal secretions, and motility” value is on record as “significant effect”. The ocular porphyrin secretions result in the assay on MPS VI rats [1] (PPS start at 6 months of age, 3 months, vs untreated MPS VI) is “markedly fewer”. In addition, in the assay on MPS VI rats [2], the “mandible and misalignment of the teeth” value is “corrected”. For the same substance, the “time on the rotating rod versus untreated” value with MPS VI rats [3] (PPS start at 1 month of age, 8 months, 20 RPM) is listed as “more than twice as long”. Further, the “rotarod performance at speeds up to 35 RPM” value with MPS VI rats [3] (PPS start at 1 month of age, 8 months, untreated unable to remain) is 60 % of normal. For the same substance, the “time on the rotating rod versus untreated” value with MPS VI rats [3] (PPS start at 6 months of age, 3 months, p<0.02) was “more than twice as long”. Further, in the assay with TNF-α, the “TNF-α expression in liver and spleen” value is given as “decreased”. In the assay with MIP-1α, Rantes, TNF-α (PPS start at 6 months, 9-month-old animals, vs untreated (FIG. 10B)), the “serum TNF levels” value is “decreased”. In the assay with MIP-1α, Rantes, TNF-α (setting [8]), the “serum MIP-1α level” value is “significantly (<0.001) lower”, the “serum Rantes level” value is listed as “significantly (<0.001) lower” and the “serum TNF-α level” value is reported as “significantly (<0.001) lower”. Further, the collapsed tracheas entry in the assay with MPS VI rats [4] is “improved”. Besides, the “disc height index (DHI)” value with MPS VI rats [5] is “did not influence”. In the assay with articular chondrocytes, the “ADAMTS-5 in articular chondrocytes” value was “reduced”, the “Cox-2 in articular chondrocytes” value is on record as “reduced to normal”, the “TNF-α in articular chondrocytes” value is “reduced to normal” and the “p38 in articular chondrocytes” value is listed as “reduced to normal”. In addition, the “rotarod performance versus untreated NPD mice” value in assay [6] was “significantly better”.
